Patent US7247634B2, “Rifamycin derivatives effective against drug-resistant microbes” (Cumbre Pharmaceuticals Inc., priority 2004, dated 2007)
Converted amounts (≈) assume the structure as drawn.

Key:
Type in all cases: cell-based
[1] = test system: Mycobacterium smegmatis ATCC700084; assay: MIC, microbroth dilution (NCCLS); conditions: Mycolicibacterium smegmatis, rifS strain, Middlebrook Broth plus ADC Enrichment, 37° C., read-out: Antimicrobial activity (MIC)
[2] = test system: Streptococcus pyogenes ATCC19615; assay: MIC, microbroth dilution (NCCLS); conditions: rifS strain, THY Broth, 37° C., read-out: Antimicrobial activity (MIC)
[3] = test system: Streptococcus pneumoniae ATCC6303; assay: MIC, microbroth dilution (NCCLS); conditions: rifS strain, THY Broth with 1 mg/mL catalase, 5% CO2, 37° C., read-out: Antimicrobial activity (MIC)
[4] = test system: Staphylococcus aureus EN1252a gyrA^S84L grlA^S80F; assay: microbe, parasite or virus in culture; conditions: read-out: Antimicrobial activity (MIC)
Method: (§1) Representative compounds were assayed for antimicrobial activity as follows: Minimum Inhibitory Concentrations (“MICs”) were determined by the microbroth dilution method as per NCCLS guidelines (National Committee for Clinical Laboratory Standards. 2000. Methods for dilution antimicrobial susceptibility tests for bacteria that grow aerobically, 5th ed. M7-A5. National Committee for Clinical Laboratory Standards, Wayne, Pa.), except that all growth incubations were conducted at 37° C. Bacterial cultures were tested in the following bacteriological media: S. aureus, S. epidermidis, and E. coli in Cation-Adjusted Mueller-Hinton Broth, S. pneumoniae in THY Broth supplemented with 1 mg/mL catalase under 5% CO2 atmosphere, S. pyogenes in THY Broth, E. faecalis in BHI Broth, H. influenzae in BHI Broth supplemented with 0.75 μL of 1 mg/mL NAD and 150 μL of 1 mg/ml hematin per 5 mL, and M. smegmatis in Middlebrook Broth plus ADC Enrichment.
(§2) S. aureus ATCC 29213 RpoB^H418Y is a rifampin-resistant strain with a mutation in RNA polymerase, the biological target of rifamycin antibiotics. […] S. aureus EN1252a gyrA^S84L grlA^S80F is a quinolone-resistant strain due to double mutations to DNA gyrase and topoisomerase IV, the two biological targets for quinolone antibiotics.

[5] = test system: Staphylococcus aureus ATCC29213 rpoB^D417Y; assay: microbe, parasite or virus in culture; conditions: ATCC29213, read-out: Antimicrobial activity (MIC)
Method: as §1, §2

[6] = test system: Staphylococcus aureus ATCC29213 rpoB^H418Y; assay: microbe, parasite or virus in culture; conditions: ATCC29213, read-out: Antimicrobial activity (MIC)
Method: as §1, §2

[7] = test system: Staphylococcus epidermidis ATCC12228; assay: MIC, microbroth dilution (NCCLS); conditions: rifS strain, Cation-Adjusted Mueller-Hinton Broth, 37° C., read-out: Antimicrobial activity (MIC)
[8] = test system: Escherichia coli ATCC25922; assay: MIC, microbroth dilution (NCCLS); conditions: rifS strain, Cation-Adjusted Mueller-Hinton Broth, 37° C., read-out: Antimicrobial activity (MIC)
[9] = test system: Enterococcus faecalis ATCC29212; assay: MIC, microbroth dilution (NCCLS); conditions: rifS strain, BHI Broth, 37° C., read-out: Antimicrobial activity (MIC)
[10] = test system: Haemophilus influenzae ATCC10211; assay: MIC, microbroth dilution (NCCLS); conditions: rifS strain, BHI Broth with NAD and hematin, 37° C., read-out: Antimicrobial activity (MIC)
[11] = test system: Staphylococcus aureus ATCC29213; assay: MIC, microbroth dilution (NCCLS); conditions: rifS strain, Cation-Adjusted Mueller-Hinton Broth, 37° C., read-out: Antimicrobial activity (MIC)

Compound | MIC [1] [µg/mL] | MIC [2] [µg/mL] | MIC [3] [µg/mL] | MIC [4] [µg/mL] | MIC [5] [µg/mL] | MIC [6] [µg/mL] | MIC [7] [µg/mL] | MIC [8] [µg/mL] | MIC [9] [µg/mL] | MIC [10] [µg/mL] | MIC [11] [µg/mL]
COc1c(N2CCC(C3(N(C)C4CCN(C5=C6NC(=O)/C(C)=C\C=C\[C@H](C)[C@H](O)[C@@H](C)[C@@H](O)[C@@H](C)[C@H](OC(C)=O)[C@H](C)[C@@H](OC)/C=C/O[C@@]7(C)Oc8c(C)c(O)c(c(c8C7=O)C5=O)C6=O)CC4)CC3)C2)c(F)cc2c(=O)c(C(=O)O)cn(C3CC3)c12 (mixture of isomers) [Example 41] | 0.5 to 64 | 0.008 to 0.063 (≈ 0.00671 to 0.0528 µM) | 0.008 to 0.125 (≈ 0.00671 to 0.105 µM) | 0.004 to 0.5 (≈ 0.00335 to 0.419 µM) | 0.06 to 32 (≈ 0.0503 to 26.8 µM) | 0.06 to 16 (≈ 0.0503 to 13.4 µM) | 0.008 to 0.063 (≈ 0.00671 to 0.0528 µM) | 0.125 to 8 (≈ 0.105 to 6.71 µM) | 2 to 32 (≈ 1.68 to 26.8 µM) | 0.125 to 2 (≈ 0.105 to 1.68 µM) | 0.004 to 0.5 (≈ 0.00335 to 0.419 µM)
CO[C@H]1/C=C/O[C@@]2(C)Oc3c(C)c(O)c4c(c3C2=O)C(=O)C(N2CC(C(=O)NC3CCN(c5c(F)cc6c(=O)c(C(=O)O)cn(C7CC7)c6c5Cl)C3)C2)=C(NC(=O)/C(C)=C\C=C\[C@H](C)[C@H](O)[C@@H](C)[C@@H](O)[C@@H](C)[C@H](OC(C)=O)[C@@H]1C)C4=O (mixture of isomers) [Example 43, (R/S)-3-{3-[1-(3-Carboxy-8-chloro-1-cyclopropyl-6-fluoro-4-oxo-1,4-dihydroquinolin-7-yl)-pyrrolidin-3-ylcarbamoyl]-azetidin-1-yl}rifamycin S] | 0.5 to 64 | 0.008 to 0.063 (≈ 0.007 to 0.0551 µM) | 0.008 to 0.125 (≈ 0.007 to 0.109 µM) | 0.004 to 0.5 (≈ 0.0035 to 0.438 µM) | 0.06 to 32 (≈ 0.0525 to 28 µM) | 0.06 to 16 (≈ 0.0525 to 14 µM) | 0.008 to 0.063 (≈ 0.007 to 0.0551 µM) | 0.125 to 8 (≈ 0.109 to 7 µM) | 2 to 32 (≈ 1.75 to 28 µM) | 0.125 to 2 (≈ 0.109 to 1.75 µM) | 0.004 to 0.5 (≈ 0.0035 to 0.438 µM)
COc1c(N2CCC(NC(=O)C3CN(C4=C5NC(=O)/C(C)=C\C=C\[C@H](C)[C@H](O)[C@@H](C)[C@@H](O)[C@@H](C)[C@H](OC(C)=O)[C@H](C)[C@@H](OC)/C=C/O[C@@]6(C)Oc7c(C)c(O)c(c(c7C6=O)C4=O)C5=O)C3)C2)c(F)cc2c(=O)c(C(=O)O)cn(C3CC3)c12 (mixture of isomers) [Example 44, (R/S)-3-{3-[1-(3-Carboxy-1-cyclopropyl-6-fluoro-8-methoxy-4-oxo-1,4-dihydroquinolin-7-yl)-pyrrolidin-3-ylcarbamoyl]-azetidin-1-yl}rifamycin S] | 0.5 to 64 | 0.008 to 0.063 (≈ 0.00703 to 0.0554 µM) | 0.008 to 0.125 (≈ 0.00703 to 0.11 µM) | 0.004 to 0.5 (≈ 0.00351 to 0.439 µM) | 0.06 to 32 (≈ 0.0527 to 28.1 µM) | 0.06 to 16 (≈ 0.0527 to 14.1 µM) | 0.008 to 0.063 (≈ 0.00703 to 0.0554 µM) | 0.125 to 8 (≈ 0.11 to 7.03 µM) | 2 to 32 (≈ 1.76 to 28.1 µM) | 0.125 to 2 (≈ 0.11 to 1.76 µM) | 0.004 to 0.5 (≈ 0.00351 to 0.439 µM)
CO[C@H]1/C=C/O[C@@]2(C)Oc3c(C)c(O)c4c(c3C2=O)C(=O)C(N2CCC(C(=O)NC3CCN(c5c(F)cc6c(=O)c(C(=O)O)cn(C7CC7)c6c5Cl)C3)CC2)=C(NC(=O)/C(C)=C\C=C\[C@H](C)[C@H](O)[C@@H](C)[C@@H](O)[C@@H](C)[C@H](OC(C)=O)[C@@H]1C)C4=O (mixture of isomers) [Example 49, (R/S)-3-{4-[1-(3-Carboxy-8-chloro-1-cyclopropyl-6-fluoro-4-oxo-1,4-dihydroquinolin-7-yl)-pyrrolidin-3-ylcarbamoyl]-piperidin-1-yl}rifamycin S] | 0.5 to 64 | 0.008 to 0.063 (≈ 0.00683 to 0.0538 µM) | 0.008 to 0.125 (≈ 0.00683 to 0.107 µM) | 0.004 to 0.5 (≈ 0.00342 to 0.427 µM) | 0.06 to 32 (≈ 0.0513 to 27.3 µM) | 0.06 to 16 (≈ 0.0513 to 13.7 µM) | 0.008 to 0.063 (≈ 0.00683 to 0.0538 µM) | 0.125 to 8 (≈ 0.107 to 6.83 µM) | 2 to 32 (≈ 1.71 to 27.3 µM) | 0.125 to 2 (≈ 0.107 to 1.71 µM) | 0.004 to 0.5 (≈ 0.00342 to 0.427 µM)
COc1c(N2CCC(NC(=O)C3CCN(C4=C5NC(=O)/C(C)=C\C=C\[C@H](C)[C@H](O)[C@@H](C)[C@@H](O)[C@@H](C)[C@H](OC(C)=O)[C@H](C)[C@@H](OC)/C=C/O[C@@]6(C)Oc7c(C)c(O)c(c(c7C6=O)C4=O)C5=O)CC3)C2)c(F)cc2c(=O)c(C(=O)O)cn(C3CC3)c12 (mixture of isomers) [Example 50, (R/S)-3-{4-[1-(3-Carboxy-1-cyclopropyl-6-fluoro-8-methoxy-4-oxo-1,4-dihydroquinolin-7-yl)-pyrrolidin-3-ylcarbamoyl]-piperidin-1-yl}rifamycin S] | 0.5 to 64 | 0.008 to 0.063 (≈ 0.00686 to 0.054 µM) | 0.008 to 0.125 (≈ 0.00686 to 0.107 µM) | 0.004 to 0.5 (≈ 0.00343 to 0.429 µM) | 0.06 to 32 (≈ 0.0514 to 27.4 µM) | 0.06 to 16 (≈ 0.0514 to 13.7 µM) | 0.008 to 0.063 (≈ 0.00686 to 0.054 µM) | 0.125 to 8 (≈ 0.107 to 6.86 µM) | 2 to 32 (≈ 1.71 to 27.4 µM) | 0.125 to 2 (≈ 0.107 to 1.71 µM) | 0.004 to 0.5 (≈ 0.00343 to 0.429 µM)
